Experiments:
[1] = test system: novel coronavirus (live coronavirus), vero cells; experiment: In-vitro live virus neutralization experiment with serum of immunized mice (CPE method); assay type: in vivo, SARS-CoV-2
Balb/c mice = experiment: Polypeptide chip-based vaccine immunogenicity scoring system; assay type: in vivo; design: key to A2: whether the 95 percentile of the last sampling is increased compared with the end point: Y = rise; N = no rise; conditions: for A: 95 percentile grouping number score / B: Mouse performance score: total score = 5
[2] = Embodiment III, polypeptide-KLH
[3] = Embodiment III, polypeptide-KLH, Mix1-10
[4] = Embodiment III, polypeptide-KLH, value of the whole mix
[5] = adjuvant AddaVax, 7 peptides co-immunized in mice
[6] = adjuvant Adju-Phos, 7 peptides co-immunized in mice
[7] = adjuvant Alhydrogel, 7 peptides co-immunized in mice
[8] = adjuvant Imjet Alumn, 7 peptides co-immunized in mice
[9] = adjuvant MA103A, 7 peptides co-immunized in mice
[10] = adjuvant MA103B, 7 peptides co-immunized in mice

**Q.** For SNLKPFER (SARS-CoV-2) [SEQ ID NO:36], which “Neutralizing antibody positive rate (%)” value ([1]; Embodiment I: single peptide 100 μg + MF59 at Day 0, 14, 28, Balb/c mice, serum Day 35) is on record?
**A.** 40%

**Q.** What about the “Neutralizing activity of serum to the novel coronavirus (in words)” value ([1]; Embodiment I: single peptide vaccines + MF59) of the same sequence?
**A.** optimal neutralization effect

**Q.** What about the “A2: whether the 95 percentile of the last sampling is increased compared with the end point” value (Balb/c mice; Embodiment II, Combination 2) of the same sequence?
**A.** Y

**Q.** And the “B1: D 0-D 14 95 percentile rise in the number of mice” value (Balb/c mice; Embodiment II, Combination 2)?
**A.** 5

**Q.** What about the “B2: D 0-D 21 95 percentile rise in the number of mice” value (Balb/c mice; Embodiment II, Combination 2) of the same sequence?
**A.** 5

**Q.** And the “B3: D 14-D 21 95 percentile rise in the number of mice” value (Balb/c mice; Embodiment II, Combination 2)?
**A.** 0

**Q.** What about the “B4: D 21-D 28 95 percentile rise in the number of mice” value (Balb/c mice; Embodiment II, Combination 2) of the same sequence?
**A.** 2

**Q.** And the Total single peptide (Balb/c mice; Embodiment II, Combination 2, A*3 + B*2 + C*1)?
**A.** 11.8

**Q.** What about the “A: 95 percentile grouping number score” value (Balb/c mice; Embodiment II, Combination 2) of the same sequence?
**A.** 1.5

**Q.** What about the “B: Mouse performance score” value (Balb/c mice; Embodiment II, Combination 2) of the same sequence?
**A.** 3.4

**Q.** And the “A1: difference between a highest median and a D 0 median (95 percentile)” value (Balb/c mice; Embodiment II, mice immunized with Combination 2)?
**A.** 0.1

**Q.** And the “B1: D 0-D 14 95 percentile rise in the number of mice” value (Balb/c mice; [2])?
**A.** 3

**Q.** What about the “B2: D 0-D 21 95 percentile rise in the number of mice” value (Balb/c mice; [2]) of the same sequence?
**A.** 2

**Q.** And the “B3: D 14-D 21 95 percentile rise in the number of mice” value (Balb/c mice; [2])?
**A.** 0

**Q.** What about the “B4: D 21-D 28 95 percentile rise in the number of mice” value (Balb/c mice; [2]) of the same sequence?
**A.** 2

**Q.** What about the “A1: difference between a highest median and a D 0 median (95 percentile)” value (Balb/c mice; [3]) of the same sequence?
**A.** 0.10

**Q.** And the “A2: whether the 95 percentile of the last sampling is increased compared with the end point” value (Balb/c mice; [3])?
**A.** Y

**Q.** What about the Total single peptide (Balb/c mice; Embodiment III, polypeptide-KLH, A*3 + B*2 + C*1) of the same sequence?
**A.** 17.4

**Q.** What about the “A: 95 percentile grouping number score” value (Balb/c mice; [2]) of the same sequence?
**A.** 4.5

**Q.** And the “B: Mouse performance score” value (Balb/c mice; [2])?
**A.** 1.7

**Q.** And the “C1: #A timing-sequence response peptide fragment set” value (Balb/c mice; [4])?
**A.** 511

**Q.** And the “C2: #B vaccine specificity peptide fragment set” value (Balb/c mice; [4])?
**A.** 364

**Q.** And the “C3: Intersection of A and B” value (Balb/c mice; [4])?
**A.** 1

**Q.** And the “C4: Percentage of the intersection in set B” value (Balb/c mice; [4])?
**A.** 0.275

**Q.** And the “C: Timing-sequence response and specificity score” value (Balb/c mice; [4])?
**A.** 0.5

**Q.** And the “1) 95 percentile grouping number A” value (Balb/c mice; [5])?
**A.** 3.5

**Q.** And the “1) 95 percentile grouping number A1” value (Balb/c mice; [5])?
**A.** 0.04

**Q.** And the “2) Mouse performance B” value (Balb/c mice; [5])?
**A.** 2.5

**Q.** What about the “2) Mouse performance B1” value (Balb/c mice; [5]) of the same sequence?
**A.** 3

**Q.** What about the “2) Mouse performance B2” value (Balb/c mice; [5]) of the same sequence?
**A.** 4

**Q.** And the “2) Mouse performance B3” value (Balb/c mice; [5])?
**A.** 2

**Q.** What about the “3) Timing-sequence response and specificity C” value (Balb/c mice; [5]) of the same sequence?
**A.** 0

**Q.** And the “3) Timing-sequence response and specificity C1” value (Balb/c mice; [5])?
**A.** 237

**Q.** What about the “3) Timing-sequence response and specificity C2” value (Balb/c mice; [5]) of the same sequence?
**A.** 1244

**Q.** And the “3) Timing-sequence response and specificity C3” value (Balb/c mice; [5])?
**A.** 0

**Q.** And the “3) Timing-sequence response and specificity C4” value (Balb/c mice; [5])?
**A.** 0.000

**Q.** What about the Total single peptide (Balb/c mice; [5]) of the same sequence?
**A.** 15.5

**Q.** What about the “1) 95 percentile grouping number A” value (Balb/c mice; [6]) of the same sequence?
**A.** 3.5

**Q.** What about the “1) 95 percentile grouping number A1” value (Balb/c mice; [6]) of the same sequence?
**A.** 0.05

**Q.** And the “2) Mouse performance B” value (Balb/c mice; [6])?
**A.** 1.8

**Q.** What about the “2) Mouse performance B1” value (Balb/c mice; [6]) of the same sequence?
**A.** 2

**Q.** And the “2) Mouse performance B2” value (Balb/c mice; [6])?
**A.** 2

**Q.** What about the “2) Mouse performance B3” value (Balb/c mice; [6]) of the same sequence?
**A.** 2

**Q.** And the “3) Timing-sequence response and specificity C” value (Balb/c mice; [6])?
**A.** 0

**Q.** What about the “3) Timing-sequence response and specificity C1” value (Balb/c mice; [6]) of the same sequence?
**A.** 203

**Q.** What about the “3) Timing-sequence response and specificity C2” value (Balb/c mice; [6]) of the same sequence?
**A.** 1244

**Q.** And the “3) Timing-sequence response and specificity C3” value (Balb/c mice; [6])?
**A.** 0

**Q.** And the “3) Timing-sequence response and specificity C4” value (Balb/c mice; [6])?
**A.** 0.000

**Q.** And the Total single peptide (Balb/c mice; [6])?
**A.** 14.1

**Q.** And the “1) 95 percentile grouping number A” value (Balb/c mice; [7])?
**A.** 0

**Q.** And the “1) 95 percentile grouping number A1” value (Balb/c mice; [7])?
**A.** 0

**Q.** And the “2) Mouse performance B” value (Balb/c mice; [7])?
**A.** 1.9

**Q.** And the “2) Mouse performance B1” value (Balb/c mice; [7])?
**A.** 3

**Q.** And the “2) Mouse performance B2” value (Balb/c mice; [7])?
**A.** 1

**Q.** What about the “2) Mouse performance B3” value (Balb/c mice; [7]) of the same sequence?
**A.** 2

**Q.** What about the “3) Timing-sequence response and specificity C” value (Balb/c mice; [7]) of the same sequence?
**A.** 1

**Q.** And the “3) Timing-sequence response and specificity C1” value (Balb/c mice; [7])?
**A.** 123

**Q.** And the “3) Timing-sequence response and specificity C2” value (Balb/c mice; [7])?
**A.** 1244

**Q.** What about the “3) Timing-sequence response and specificity C3” value (Balb/c mice; [7]) of the same sequence?
**A.** 2

**Q.** And the “3) Timing-sequence response and specificity C4” value (Balb/c mice; [7])?
**A.** 0.161

**Q.** What about the Total single peptide (Balb/c mice; [7]) of the same sequence?
**A.** 4.3

**Q.** What about the “1) 95 percentile grouping number A” value (Balb/c mice; [8]) of the same sequence?
**A.** 4.5

**Q.** What about the “1) 95 percentile grouping number A1” value (Balb/c mice; [8]) of the same sequence?
**A.** 0.065

**Q.** And the “2) Mouse performance B” value (Balb/c mice; [8])?
**A.** 2.5

**Q.** What about the “2) Mouse performance B1” value (Balb/c mice; [8]) of the same sequence?
**A.** 5

**Q.** And the “2) Mouse performance B2” value (Balb/c mice; [8])?
**A.** 3

**Q.** What about the “2) Mouse performance B3” value (Balb/c mice; [8]) of the same sequence?
**A.** 1

**Q.** And the “3) Timing-sequence response and specificity C” value (Balb/c mice; [8])?
**A.** 1

**Q.** And the “3) Timing-sequence response and specificity C1” value (Balb/c mice; [8])?
**A.** 100

**Q.** What about the “3) Timing-sequence response and specificity C2” value (Balb/c mice; [8]) of the same sequence?
**A.** 1244

**Q.** And the “3) Timing-sequence response and specificity C3” value (Balb/c mice; [8])?
**A.** 3

**Q.** What about the “3) Timing-sequence response and specificity C4” value (Balb/c mice; [8]) of the same sequence?
**A.** 0.241

**Q.** And the Total single peptide (Balb/c mice; [8])?
**A.** 19

**Q.** What about the “1) 95 percentile grouping number A” value (Balb/c mice; [9]) of the same sequence?
**A.** 4.5

**Q.** What about the “1) 95 percentile grouping number A1” value (Balb/c mice; [9]) of the same sequence?
**A.** 0.065

**Q.** And the “2) Mouse performance B” value (Balb/c mice; [9])?
**A.** 2.4

**Q.** What about the “2) Mouse performance B1” value (Balb/c mice; [9]) of the same sequence?
**A.** 4

**Q.** And the “2) Mouse performance B2” value (Balb/c mice; [9])?
**A.** 4

**Q.** What about the “2) Mouse performance B3” value (Balb/c mice; [9]) of the same sequence?
**A.** 1

**Q.** What about the “3) Timing-sequence response and specificity C” value (Balb/c mice; [9]) of the same sequence?
**A.** 1

**Q.** And the “3) Timing-sequence response and specificity C1” value (Balb/c mice; [9])?
**A.** 260

**Q.** What about the “3) Timing-sequence response and specificity C2” value (Balb/c mice; [9]) of the same sequence?
**A.** 1244

**Q.** What about the “3) Timing-sequence response and specificity C3” value (Balb/c mice; [9]) of the same sequence?
**A.** 3

**Q.** And the “3) Timing-sequence response and specificity C4” value (Balb/c mice; [9])?
**A.** 0.241

**Q.** What about the Total single peptide (Balb/c mice; [9]) of the same sequence?
**A.** 18.8

**Q.** What about the “1) 95 percentile grouping number A” value (Balb/c mice; [10]) of the same sequence?
**A.** 5

**Q.** What about the “1) 95 percentile grouping number A1” value (Balb/c mice; [10]) of the same sequence?
**A.** 0.06

**Q.** And the “2) Mouse performance B” value (Balb/c mice; [10])?
**A.** 3.2

**Q.** And the “2) Mouse performance B1” value (Balb/c mice; [10])?
**A.** 4

**Q.** And the “2) Mouse performance B2” value (Balb/c mice; [10])?
**A.** 4

**Q.** And the “2) Mouse performance B3” value (Balb/c mice; [10])?
**A.** 3

**Q.** And the “3) Timing-sequence response and specificity C” value (Balb/c mice; [10])?
**A.** 0

**Q.** What about the “3) Timing-sequence response and specificity C1” value (Balb/c mice; [10]) of the same sequence?
**A.** 153

**Q.** And the “3) Timing-sequence response and specificity C2” value (Balb/c mice; [10])?
**A.** 1244

**Q.** What about the “3) Timing-sequence response and specificity C3” value (Balb/c mice; [10]) of the same sequence?
**A.** 0

**Q.** And the “3) Timing-sequence response and specificity C4” value (Balb/c mice; [10])?
**A.** 0.000

**Q.** What about the Total single peptide (Balb/c mice; [10]) of the same sequence?
**A.** 21.4
